Source: PubChem BioAssay AID248 (DTP/NCI, 2004)
“And” between values parts separate entries of the source, which are not always exact repeats. Identical values can stand only once. Inconclusive results and toxic doses are left out. Cut-off read from the data, not from the text of the source: active = T/C of 150% or more; inactive = T/C below 125%.

System: L1210 leukemia ip in BDF1 mice, survival T/C
Assay: NCI In Vivo Anticancer Drug Screen. Data for tumor model L1210 Leukemia (intraperitoneal) in B6D2F1 (BDF1) mice
Details: endpoint: mean survival time, higher = longer survival
In short: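 Transplantable tumor model; survival measured in treated vs vehicle control mice. Value = treated/control.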

[1] = dose: 100.0 mg/kg/injection, schedule: Q01DX009 (ip), vehicle: saline with Tween-80
[2] = dose: 200.0 mg/kg/injection, schedule: Q01DX009 (ip), vehicle: saline with Tween-80
[3] = dose: 400.0 mg/kg/injection, schedule: Q01DX009 (ip), vehicle: saline with Tween-80
[4] = dose: 100.0 mg/kg/injection, schedule: Q04DX002 (ip), vehicle: Klucel (hydroxypropylcellulose) (HPC)
[5] = dose: 100.0 mg/kg/injection, schedule: Q04DX003 (ip), vehicle: saline with Tween-80
[6] = dose: 200.0 mg/kg/injection, schedule: Q04DX002 (ip), vehicle: Klucel (hydroxypropylcellulose) (HPC)
[7] = dose: 200.0 mg/kg/injection, schedule: Q04DX003 (ip), vehicle: saline with Tween-80
[8] = dose: 400.0 mg/kg/injection, schedule: Q04DX002 (ip), vehicle: Klucel (hydroxypropylcellulose) (HPC)
[9] = dose: 400.0 mg/kg/injection, schedule: Q04DX003 (ip), vehicle: saline with Tween-80
[10] = dose: 100.0 mg/kg/injection, schedule: Q01DX001 (ip), vehicle: saline
[11] = dose: 200.0 mg/kg/injection, schedule: Q01DX001 (ip), vehicle: saline
[12] = dose: 400.0 mg/kg/injection, schedule: Q01DX001 (ip), vehicle: saline
[13] = dose: 100.0 mg/kg/injection, schedule: Q01DX009 (ip), vehicle: Klucel (hydroxypropylcellulose) (HPC)
[14] = dose: 200.0 mg/kg/injection, schedule: Q01DX009 (ip), vehicle: Klucel (hydroxypropylcellulose) (HPC)
[15] = dose: 400.0 mg/kg/injection, schedule: Q01DX009 (ip), vehicle: Klucel (hydroxypropylcellulose) (HPC)
[16] = dose: 100.0 mg/kg/injection, schedule: Q04DX002 (ip), vehicle: saline with Tween-80
[17] = dose: 100.0 mg/kg/injection, schedule: Q01DX001 (ip), vehicle: carboxymethylcellulose (CMC)
[18] = dose: 200.0 mg/kg/injection, schedule: Q01DX001 (ip), vehicle: carboxymethylcellulose (CMC)
[19] = dose: 400.0 mg/kg/injection, schedule: Q01DX001 (ip), vehicle: carboxymethylcellulose (CMC)

Measured: T/C

O=c1oc(/C=C/c2ccccc2)nc2cc(Cl)ccc12
inactive: [1] 103 % of control | [2] 101 % of control | [3] 96 % of control

CC(=O)C(C(c1ccccc1)N1CCOCC1)N1CCOCC1 (centres undefined)
inactive: [4] 100 % of control | [5] 97 % of control | [6] 110 % of control | [7] 96 % of control | [8] 100 % of control | [9] 93 % of control

CCOC(=O)CCC(I)C(=O)OCC (centres undefined)
inactive: dose: 3.75 mg/kg/injection, schedule: Q01DX010 (ip), vehicle: saline 98 % of control | dose: 15.0 mg/kg/injection, schedule: Q01DX010 (ip), vehicle: saline 90 % of control

O=C(NNc1nc(-c2ccccc2)nc(-c2ccccc2)n1)c1ccccc1
inactive: [10] 95 % of control | [11] 96 % of control | [12] 89 % of control

CCOc1ncc([N+](=O)[O-])c(OCC)n1
inactive: dose: 50.0 mg/kg/injection, schedule: Q01DX001 (ip), vehicle: saline 103 % of control | [10] 106 % of control | [11] 103 % of control | [12] 100 % of control

Cc1ccc2nc(-c3ccc(F)cc3)cc(C(=O)O)c2c1
inactive: dose: 100.0 mg/kg/injection, schedule: Q04DX003 (ip), vehicle: saline 92 % of control | dose: 200.0 mg/kg/injection, schedule: Q04DX003 (ip), vehicle: saline 89 % of control | dose: 400.0 mg/kg/injection, schedule: Q04DX003 (ip), vehicle: saline 95 % of control

C=CCOC(=S)S
inactive: [10] 95 % of control | [11] 94 % of control

CCCCCC[Si]CCCCCC
inactive: dose: 100.0 mg/kg/injection, schedule: Q01DX001 (ip), vehicle: saline with Tween-80 94 % of control | dose: 200.0 mg/kg/injection, schedule: Q01DX001 (ip), vehicle: saline with Tween-80 100 % of control | dose: 400.0 mg/kg/injection, schedule: Q01DX001 (ip), vehicle: saline with Tween-80 94 % of control

O=C1Nc2ccccc2C1=Nc1ccc(S(=O)(=O)Nc2nccs2)cc1
inactive: dose: 75.0 mg/kg/injection, schedule: Q01DX001 (ip), vehicle: saline 89 % of control | dose: 150.0 mg/kg/injection, schedule: Q01DX001 (ip), vehicle: saline 86 % of control | dose: 300.0 mg/kg/injection, schedule: Q01DX001 (ip), vehicle: saline 86 % of control

CCCN(CCC#N)C(=S)Nc1ccc(C)c(C)c1
inactive: [4] 94 % of control | [6] 97 % of control | [8] 94 % of control

O=C(Cc1ccc(Cl)cc1)NC(NC(=O)Cc1ccc(Cl)cc1)C(Cl)(Cl)Cl
inactive: [13] 102 % of control | [14] 96 % of control | [15] 88 % of control

CC12CCC3C(CCC4=CC(=O)C(C(O)(C(F)(F)F)C(F)(F)F)CC43C)C1CC(C(O)(C(F)(F)F)C(F)(F)F)C2=O (centres undefined)
inactive: dose: 100.0 mg/kg/injection, schedule: Q01DX001 (sc), vehicle: steriod suspending solution 97 % of control | dose: 200.0 mg/kg/injection, schedule: Q01DX001 (sc), vehicle: steriod suspending solution 103 % of control | dose: 400.0 mg/kg/injection, schedule: Q01DX001 (sc), vehicle: steriod suspending solution 101 % of control

Cc1cc([N+](=O)[O-])c(N)c([N+](=O)[O-])c1
inactive: [13] 98 % of control | dose: 100.0 mg/kg/injection, schedule: Q04DX003 (ip), vehicle: Klucel (hydroxypropylcellulose) (HPC) 105 % of control | [14] 92 % of control | dose: 200.0 mg/kg/injection, schedule: Q04DX003 (ip), vehicle: Klucel (hydroxypropylcellulose) (HPC) 105 % of control | [15] 97 % of control | dose: 400.0 mg/kg/injection, schedule: Q04DX003 (ip), vehicle: Klucel (hydroxypropylcellulose) (HPC) 105 % of control

CCC(C)SC1=NC(N)=NC2=NC=NC21 (centres undefined)
inactive: dose: 50.0 mg/kg/injection, schedule: Q04DX003 (ip), vehicle: carboxymethylcellulose (CMC) 118 % of control | dose: 100.0 mg/kg/injection, schedule: Q04DX003 (ip), vehicle: carboxymethylcellulose (CMC) 122 % of control

CCC(C)Nc1ccc(NS(=O)(=O)CCl)cc1 (centres undefined)
inactive: dose: 25.0 mg/kg/injection, schedule: Q04DX002 (ip), vehicle: saline with Tween-80 97 % of control | dose: 50.0 mg/kg/injection, schedule: Q04DX002 (ip), vehicle: saline with Tween-80 106 % of control | [16] 100 % of control

O=C(NC1CCCCC1)c1ccc2ccccc2c1O
inactive: [7] 98 % of control | [9] 95 % of control

O=C(/C=C/c1ccccc1)Nc1ccc2ccccc2c1
inactive: [1] 107 % of control and 108 % of control | [16] 102 % of control and 114 % of control | [5] 92 % of control | [2] 96 % of control and 108 % of control | dose: 200.0 mg/kg/injection, schedule: Q04DX002 (ip), vehicle: saline with Tween-80 96 % of control and 102 % of control | [7] 100 % of control | [3] 94 % of control and 101 % of control | dose: 400.0 mg/kg/injection, schedule: Q04DX002 (ip), vehicle: saline with Tween-80 93 % of control and 107 % of control | [9] 101 % of control

O=C(O)c1cc(S(=O)(=O)O)cc([N+](=O)[O-])c1O
inactive: [4] 96 % of control | [6] 104 % of control | [8] 96 % of control

O=C(O)c1cccnc1.[Cu+2]
inactive: dose: 9.5 mg/kg/injection, schedule: Q01DX001 (ip), vehicle: other 97 % of control | dose: 19.0 mg/kg/injection, schedule: Q01DX001 (ip), vehicle: other 97 % of control | dose: 38.0 mg/kg/injection, schedule: Q01DX001 (ip), vehicle: other 100 % of control

O=C(OC(C1COCO1)C(O)C1COCO1)c1ccccc1 (centres undefined)
inactive: dose: 100.0 mg/kg/injection, schedule: Q01DX001 (ip), vehicle: Klucel (hydroxypropylcellulose) (HPC) 96 % of control | dose: 200.0 mg/kg/injection, schedule: Q01DX001 (ip), vehicle: Klucel (hydroxypropylcellulose) (HPC) 105 % of control | dose: 400.0 mg/kg/injection, schedule: Q01DX001 (ip), vehicle: Klucel (hydroxypropylcellulose) (HPC) 107 % of control

CCOC(=O)CC1=NC(C)(C)CC(C)O1 (centres undefined)
inactive: dose: 100.0 mg/kg/injection, schedule: Q04DX003 (ip), vehicle: saline sonified 98 % of control | dose: 200.0 mg/kg/injection, schedule: Q04DX003 (ip), vehicle: saline sonified 92 % of control | dose: 400.0 mg/kg/injection, schedule: Q04DX003 (ip), vehicle: saline sonified 115 % of control

CCOC(=O)C1(Cc2ccccc2)CCCC1=O (centres undefined)
inactive: [17] 107 % of control | [18] 96 % of control | [19] 96 % of control

CCOC(=O)CC(=O)C1CCCCC1
inactive: dose: 50.0 mg/kg/injection, schedule: Q01DX001 (ip), vehicle: carboxymethylcellulose (CMC) 95 % of control | [17] 95 % of control | [18] 97 % of control | [19] 95 % of control
